Laboratory results reported in patent US20120009613A1, “PHARMACEUTICAL COMPOSITION FOR MODULATING THE ACTIVITY OF A NOVEL TRIGLYCERIDE HYDROLASE” (Karl-Franzens-Universitat Graz, priority 2004, published 2012).

Tests used:
Assay type in all cases: biochemical
HSL = molecular target: T1, HSL (Mus musculus, UniProt P54310); test: TG hydrolase activity assay, cytosolic fractions of HepG2 cells infected with adenovirus coding for His-tagged HSL, radiolabeled triolein substrate; settings: 1M KCl vs absence (control), FIG. 5
T1 construct: His-tag; expressed in transfected cells; host or cells: HepG2 cells infected with recombinant adenovirus; cytosolic fraction
T1 sequence (P54310 1-759): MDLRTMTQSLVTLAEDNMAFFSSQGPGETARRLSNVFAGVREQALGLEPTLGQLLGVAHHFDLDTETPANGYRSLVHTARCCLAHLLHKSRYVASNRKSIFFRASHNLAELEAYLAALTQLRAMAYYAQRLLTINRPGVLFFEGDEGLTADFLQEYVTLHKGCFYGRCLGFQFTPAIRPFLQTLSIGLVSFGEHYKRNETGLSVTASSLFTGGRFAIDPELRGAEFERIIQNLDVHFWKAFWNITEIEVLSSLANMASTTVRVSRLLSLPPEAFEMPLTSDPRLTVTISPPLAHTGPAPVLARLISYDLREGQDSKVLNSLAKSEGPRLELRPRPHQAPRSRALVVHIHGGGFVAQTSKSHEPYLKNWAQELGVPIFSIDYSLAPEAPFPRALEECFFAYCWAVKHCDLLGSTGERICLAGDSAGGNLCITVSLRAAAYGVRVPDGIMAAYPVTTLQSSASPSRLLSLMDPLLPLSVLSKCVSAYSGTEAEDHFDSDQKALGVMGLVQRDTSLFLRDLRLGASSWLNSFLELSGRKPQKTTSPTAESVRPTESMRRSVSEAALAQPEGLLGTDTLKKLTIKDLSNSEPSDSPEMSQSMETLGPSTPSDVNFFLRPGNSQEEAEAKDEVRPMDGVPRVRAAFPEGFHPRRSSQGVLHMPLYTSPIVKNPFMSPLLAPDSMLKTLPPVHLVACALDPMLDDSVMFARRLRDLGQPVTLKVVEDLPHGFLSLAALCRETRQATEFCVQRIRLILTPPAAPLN
Experimental: (§1) Neutral TG lipase activity was measured with triolein as substrate containing [9,10-3H(N)]-triolein (NEN Life Science Products) as radioactive tracer. The substrate for TG lipase activity was prepared by sonication (Virsonic 475) exactly as describeded by Holm et al. (30). Cells were disrupted on ice in lysis buffer (0.25 M sucrose, 1 mM EDTA, 1 mM dithiothreitol, 20 μg/ml leupeptin, 2 μg/ml antipain, 1 μg/ml pepstatin, pH 7) by sonication (Virsonic 475). The cytosolic infranatants were obtained after centrifugation at […], at 4° C. for 60 min. The reaction was performed in a water bath at 37° C. for 60 min with 0.1 ml substrate and 0.1 ml infranatant. The reaction was terminated by adding 3.25 ml of methanol/chloroform/heptane (10:9:7) and 1 ml of 0.1 M potassium carbonate, 0.1 M boric acid, pH 10.5. After centrifugation (800 g, 20 min) the radioactivity in 1 ml of the upper phase was determined by liquid scintillation counting.
A recombinant adenovirus coding for His-tagged ATGL or HSL was used to infect HepG2 cells. The infection led to a 7- and 12-fold increase in TG hydrolase activity for HSL and ATGL, respectively, compared to LacZ-infected cells. For activity assays, the cytosolic fractions of the cells were incubated with a substrate containing radiolabeled triolein in the absence (control) or in the presence of the indicated salt concentrations.

ATGL = molecular target: T2, ATGL (Mus musculus, UniProt Q8BJ56); test: TG hydrolase activity assay, cytosolic fractions of HepG2 cells infected with adenovirus coding for His-tagged ATGL, radiolabeled triolein substrate
T2 construct: a recombinant adenovirus encoding the His-tagged full length mouse ATGL cDNA was constructed; expressed in transfected cells; host or cells: HepG2 cells infected with recombinant adenovirus; cytosolic fraction
T2 sequence (Q8BJ56 1-486): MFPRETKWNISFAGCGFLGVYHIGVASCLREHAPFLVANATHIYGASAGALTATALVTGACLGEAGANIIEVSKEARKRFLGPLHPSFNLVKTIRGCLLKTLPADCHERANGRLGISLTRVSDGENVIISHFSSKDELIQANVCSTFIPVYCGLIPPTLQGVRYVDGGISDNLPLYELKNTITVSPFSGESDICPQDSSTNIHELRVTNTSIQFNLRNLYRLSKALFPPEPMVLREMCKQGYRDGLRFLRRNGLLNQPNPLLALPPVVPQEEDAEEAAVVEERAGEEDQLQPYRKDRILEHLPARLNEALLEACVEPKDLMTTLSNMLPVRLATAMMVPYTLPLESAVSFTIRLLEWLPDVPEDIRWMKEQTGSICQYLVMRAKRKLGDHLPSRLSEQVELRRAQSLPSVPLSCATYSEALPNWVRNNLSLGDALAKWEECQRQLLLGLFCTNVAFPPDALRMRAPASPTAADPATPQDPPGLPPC
Experimental: as §1
A recombinant adenovirus coding for His-tagged ATGL or HSL was used to infect HepG2 cells as described above. For activity assays, the cytosolic fractions of the cells were incubated with a substrate containing radiolabeled triolein in the absence (control) or in the presence of 50 μg/ml orlistat. It can be seen from FIG. 4 that addition of orlistat decreased in ATGL activity by 98%. […]

human ATGL (hATGL) = molecular target: T3, human ATGL (hATGL) (Homo sapiens, UniProt Q96AD5); test: TGH activity assay of hATGL with hCGI-58 expressed in COS-7 cells; settings: human proteins; dose-dependent; FIG. 6f
T3 construct: The PCR products, containing the complete open reading frame, were ligated; expressed in transfected cells; host or cells: COS-7, transient transfection; cytoplasmic extracts
T3 sequence (Q96AD5 2-504): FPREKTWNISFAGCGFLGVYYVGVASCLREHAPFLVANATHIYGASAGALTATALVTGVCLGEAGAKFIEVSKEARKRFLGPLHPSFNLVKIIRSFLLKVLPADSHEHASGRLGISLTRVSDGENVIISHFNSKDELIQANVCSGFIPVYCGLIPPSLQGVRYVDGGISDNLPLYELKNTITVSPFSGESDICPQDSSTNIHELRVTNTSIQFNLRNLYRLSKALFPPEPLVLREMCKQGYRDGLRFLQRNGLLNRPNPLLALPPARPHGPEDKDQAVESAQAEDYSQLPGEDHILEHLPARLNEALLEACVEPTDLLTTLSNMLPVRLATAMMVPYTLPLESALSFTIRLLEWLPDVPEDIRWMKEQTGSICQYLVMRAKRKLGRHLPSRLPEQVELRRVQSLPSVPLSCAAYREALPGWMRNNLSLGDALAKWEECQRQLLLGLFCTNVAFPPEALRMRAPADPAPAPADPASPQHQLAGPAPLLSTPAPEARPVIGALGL
T3 sequence (Q8WTS1 1-349 partner): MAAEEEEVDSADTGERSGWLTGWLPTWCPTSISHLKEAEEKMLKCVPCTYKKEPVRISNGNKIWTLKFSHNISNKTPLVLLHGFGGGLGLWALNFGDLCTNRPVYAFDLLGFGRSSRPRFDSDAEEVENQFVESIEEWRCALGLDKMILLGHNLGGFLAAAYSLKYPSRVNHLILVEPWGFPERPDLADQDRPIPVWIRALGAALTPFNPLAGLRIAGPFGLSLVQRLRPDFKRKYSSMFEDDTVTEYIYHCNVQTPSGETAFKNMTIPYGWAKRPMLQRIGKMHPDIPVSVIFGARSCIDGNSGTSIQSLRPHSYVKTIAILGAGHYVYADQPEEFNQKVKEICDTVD
Excerpt: In comparison, transfection of cells with ATGL and HSL increased TGH activities 4- and 9-fold, respectively. In order to investigate whether the effect of CGI-58 is due to endogenous TGH activity of CGI-58 or if the protein affects the activity of other lipases, the extracts of CGI-58 and ATGL or HSL-expressing cells were mixed together and subjected to TGH activity determinations (FIG. 6c). […] The activation of ATGL by CGI-58 could also be monitored on the molecular level using the fluorescently labeled lipase-inhibitor NBD-snl TG. By mimicking a TG molecule, this inhibitor covalently binds to active lipases. […]
Expression ofrecombinant proteins in cultured cells for CGI-58 investigations—Monkey embryonic kidney cells (COS-7, ATCC CRL-1651) were maintained in Dulbecco's minimal essential medium (DMEM) (Gibco, Invitrogen life technologies, Carlsbad, Calif.) containing 10% fetal calf serum (FCS) (Sigma-Aldrich Chemie GmbH) and antibiotics at 37° C. in humidified air (89-91% saturation) and 5% C02. […] Cells were analyzed two days after transfection.
FIG. 6. […] (a) His-tagged proteins were detected in cytoplasmic extracts of transfected cells by Western blotting using a monoclonal anti-His antibody. (b) TGH activity of cytoplasmic extracts of transfected cells was determined using a radiolabeled triolein substrate. […] The molar ratio ATGL/CGI-58 was determined as described in (d).

[Cl-].[K+] [KCl, potassium chloride]
change in HSL activity (HSL): −68% | change in ATGL activity (stimulated) (ATGL; 1M KCl vs absence (control), FIG. 5): +84%

CCCCCCCCCCC[C@@H](C[C@@H]1OC(=O)[C@H]1CCCCCC)OC(=O)[C@H](CC(C)C)NC=O [orlistat]
decrease in ATGL activity (ATGL; 50 μg/ml orlistat vs absence (control), FIG. 4): 98%

B1: hCGI-58: human CGI-58 expressed in COS-7 cells (protein, UniProt Q8WTS1 2-349, looked up)
1-acylglycerol-3-phosphate …: AAEEEEVDSADTGERSGWLTGWLPTWCPTSISHLKEAEEKMLKCVPCTYKKEPVRISNGNKIWTLKFSHNISNKTPLVLLHGFGGGLGLWALNFGDLCTNRPVYAFDLLGFGRSSRPRFDSDAEEVENQFVESIEEWRCALGLDKMILLGHNLGGFLAAAYSLKYPSRVNHLILVEPWGFPERPDLADQDRPIPVWIRALGAALTPFNPLAGLRIAGPFGLSLVQRLRPDFKRKYSSMFEDDTVTEYIYHCNVQTPSGETAFKNMTIPYGWAKRPMLQRIGKMHPDIPVSVIFGARSCIDGNSGTSIQSLRPHSYVKTIAILGAGHYVYADQPEEFNQKVKEICDTVD
magnitude of the maximal effect on ATGL activation (human ATGL (hATGL)): 6 fold
